This passage reports EC50 and IC50 results from paper PMC2846816 (Arthritis and rheumatism, 2009).

Where a name gives a salt, the structure may show the parent alone. Read-outs that look alike come from different tables or passages of the source.

Broadly, the EC50 is the concentration giving half of the maximal effect. In general, IC50 refers to the midpoint of a concentration-inhibition curve. A high value points to lower potency.

Assay in all cases: Fura-2 Ca2+ influx
Holding throughout (type): cell-based

The target of assay [1] is T1, TRPV4 (Sus scrofa, UniProt B3VP30).
T1 sequence (B3VP30 1-871): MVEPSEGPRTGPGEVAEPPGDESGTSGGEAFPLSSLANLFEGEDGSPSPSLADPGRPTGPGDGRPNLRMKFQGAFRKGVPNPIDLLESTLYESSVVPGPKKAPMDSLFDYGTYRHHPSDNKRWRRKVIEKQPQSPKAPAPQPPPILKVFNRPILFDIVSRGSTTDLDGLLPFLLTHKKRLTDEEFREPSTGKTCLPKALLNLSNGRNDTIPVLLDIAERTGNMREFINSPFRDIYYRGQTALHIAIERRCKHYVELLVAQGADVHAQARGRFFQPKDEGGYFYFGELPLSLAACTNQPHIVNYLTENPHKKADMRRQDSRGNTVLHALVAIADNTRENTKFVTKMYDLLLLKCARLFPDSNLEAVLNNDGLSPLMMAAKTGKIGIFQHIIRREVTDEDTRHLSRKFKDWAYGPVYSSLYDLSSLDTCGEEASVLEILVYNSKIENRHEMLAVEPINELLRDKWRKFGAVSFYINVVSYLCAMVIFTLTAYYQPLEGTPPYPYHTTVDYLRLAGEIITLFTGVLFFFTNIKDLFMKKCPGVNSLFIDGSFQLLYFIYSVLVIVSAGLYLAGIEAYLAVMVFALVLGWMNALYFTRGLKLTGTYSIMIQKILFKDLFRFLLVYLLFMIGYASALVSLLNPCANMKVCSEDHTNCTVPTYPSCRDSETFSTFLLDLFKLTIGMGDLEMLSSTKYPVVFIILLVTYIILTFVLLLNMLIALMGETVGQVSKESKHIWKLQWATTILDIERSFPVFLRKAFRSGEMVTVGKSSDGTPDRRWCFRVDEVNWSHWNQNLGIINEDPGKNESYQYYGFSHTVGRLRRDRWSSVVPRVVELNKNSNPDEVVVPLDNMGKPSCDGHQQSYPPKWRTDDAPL
Assay [2] concerns the target T1, TRPV4. This is another data set of the same source.
Assay [3] deals with T1, TRPV4. This is another data set of the same source.

In the case of `CCCCCCCCCC(=O)O[C@@H]1[C@@H](C)[C@@]2(O)[C@@H](C=C(CO)C[C@@]3(O)C(=O)C(C)=C[C@@H]23)[C@@H]2C(C)(C)[C@]12OC(=O)CCCCCCCCC` [4αPDD], the concentration giving a half-maximal response (EC50) at TRPV4 [1] is about 2 µM. Compound `Cl.Cl.Cl.Cl.Cl.Cl.N.N.N.N.N.N.N.N.N.N.N.N.N.N.[O-2].[O-2].[Ru+3].[Ru+3].[Ru+4]` [Ruthenium Red] had an IC50 against TRPV4 [2] of about 0.005 µM. At TRPV4 [3], `CN(CCc1ccc(Nc2ncc(-c3cccnc3)s2)cc1)Cc1ccccc1` [GSK205, N-(4-{2 [methyl(phenylmethyl)amino]ethyl}phenyl)-5-(3-pyridinyl)-1,3-thiazol-2-amine hydrobromide] came in with a concentration for half-maximal inhibition (IC50) of about 0.6 µM.
